# Reference: US11478558B2, “Prostate-specific membrane antigen targeted high-affinity agents for endoradiotherapy of prostate cancer” (The Johns Hopkins University, priority 2017, dated 2022)
# Tests used:
# [1] = Octanol/water partition coefficient; assay type: physicochemical; conditions: Table 1
# PSMA = PSMA (Homo sapiens (Human), UniProt Q04609); experiment: PSMA binding affinity
# PSMA(+) PC3 PIP cells = experiment: Cell uptake, cell surface binding and internalization in PSMA(+) PC3 PIP cells; assay type: cell-based, human
# PSMA, sequence (Q04609 whole entry): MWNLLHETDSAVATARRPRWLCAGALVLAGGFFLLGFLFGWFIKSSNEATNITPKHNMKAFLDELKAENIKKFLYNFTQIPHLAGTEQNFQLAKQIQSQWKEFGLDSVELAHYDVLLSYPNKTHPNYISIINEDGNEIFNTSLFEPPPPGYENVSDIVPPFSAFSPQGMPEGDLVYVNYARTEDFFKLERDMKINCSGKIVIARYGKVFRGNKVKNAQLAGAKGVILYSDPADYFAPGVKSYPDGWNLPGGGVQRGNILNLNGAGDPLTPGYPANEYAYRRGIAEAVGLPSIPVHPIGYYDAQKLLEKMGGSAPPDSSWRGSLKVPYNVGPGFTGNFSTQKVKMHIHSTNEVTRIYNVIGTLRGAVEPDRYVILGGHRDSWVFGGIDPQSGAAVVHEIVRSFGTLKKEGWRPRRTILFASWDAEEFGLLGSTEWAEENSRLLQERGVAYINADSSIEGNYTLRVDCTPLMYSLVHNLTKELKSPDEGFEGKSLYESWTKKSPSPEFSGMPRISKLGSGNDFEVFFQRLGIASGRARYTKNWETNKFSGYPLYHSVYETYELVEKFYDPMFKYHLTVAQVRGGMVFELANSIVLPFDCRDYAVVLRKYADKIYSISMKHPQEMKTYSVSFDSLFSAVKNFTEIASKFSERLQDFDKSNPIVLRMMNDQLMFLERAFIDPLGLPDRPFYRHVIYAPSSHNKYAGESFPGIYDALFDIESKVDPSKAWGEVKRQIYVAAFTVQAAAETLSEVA
SMILES,LogPoct/water [1],IC50 (PSMA; Table 1) [nM],Ki (PSMA; Table 1) [nM],"Ki (PSMA; Table 6, given as range) [nM]",Specific Cell Surface Binding (PSMA(+) PC3 PIP cells) [% IA/10^6 cells],specific internalization (PSMA(+) PC3 PIP cells) [% IA/10^6 cells]
"O=C(O)CC[C@H](NC(=O)N[C@@H](CCCCN(Cc1ccc(Br)cc1)C(=O)CCCCNC(=S)Nc1ccc(CC2CN(CC(=O)O)CCN(CC(=O)O)CCN(CC(=O)O)CCN2CC(=O)O)cc1)C(=O)O)C(=O)O (stereo partly drawn) [Ligand 1, (13S,17S)-8-(4-bromobenzyl)-7,15-dioxo-1-((4-((1,4,7,10-tetrakis(carboxymethyl)-1,4,7,10-tetraazacyclododecan-2-yl)methyl)phenyl)amino)-1-thioxo-2,8,14,16-tetraazanonadecane-13,17,19-tricarboxylic acid]",−3.0,–,–,–,–,–
"O=C(O)CC[C@H](NC(=O)N[C@@H](CCCCN(Cc1ccc(Br)cc1)C(=O)CCCCNC(=O)CN1CCN(CC(=O)O)CCN(CC(=O)O)CCN(CC(=O)O)CC1)C(=O)O)C(=O)O [Ligand 2, (14S,18S)-9-(4-Bromobenzyl)-2,8,16-trioxo-1-(4,7,10-tris(carboxymethyl)-1,4,7,10-tetraazacyclododecan-1-yl)-3,9,15,17-tetraazaicosane-14,18,20-tricarboxylic acid]",−3.53,0.64,1.28,–,–,–
"O=C(O)CC[C@H](NC(=O)N[C@@H](CCCCNC(=O)CCCCNC(=S)Nc1ccc(CC2CN(CC(=O)O)CCN(CC(=O)O)CCN(CC(=O)O)CCN2CC(=O)O)cc1)C(=O)O)C(=O)O (stereo partly drawn) [Ligand 3, (13S,17S)-7,15-dioxo-1-((4-((1,4,7,10-tetrakis(carboxymethyl)-1,4,7,10-tetraazacyclododecan-2-yl)methyl)phenyl)amino)-1-thioxo-2,8,14,16-tetraazanonadecane-13,17,19-tricarboxylic acid]",−3.2,2.16,0.43,–,–,–
"O=C(O)CC[C@H](NC(=O)N[C@@H](CCCCN(Cc1ccc(Br)cc1)C(=O)CCCCCCC(=O)NCCCCNC(=O)c1ccc(CNC(=O)CN2CCN(CC(=O)O)CCN(CC(=O)O)CCN(CC(=O)O)CC2)cc1)C(=O)O)C(=O)O [Ligand L5, (21S,25S)-16-(4-Bromobenzyl)-1,8,15,23-tetraoxo-1-(4-((2-(4,7,10-tris(carboxymethyl)-1,4,7,10-tetraazacyclododecan-1-yl)acetamido)methyl)phenyl)-2,7,16,22,24-pentaazaheptacosane-21,25,27-tricarboxylic acid]",–,–,–,0.46 to 0.63,36.65 ± 0.50,22.03 ± 0.60
"O=C(O)CC[C@H](NC(=O)N[C@@H](CCCCN(Cc1ccc(Br)cc1)C(=O)CCCCNC(=S)Nc1ccc(CC2CN(CC(=O)O)CCN(CC(=O)O)CCN(CC(=O)O)CCN2CC(=O)O)cc1)C(=O)O)C(=O)O (stereo partly drawn) [Ligand L8, (13S,17S)-8-(4-bromobenzyl)-7,15-dioxo-1-((4-((1,4,7,10-tetrakis(carboxymethyl)-1,4,7,10-tetraazacyclododecan-2-yl)methyl)phenyl)amino)-1-thioxo-2,8,14,16-tetraazanonadecane-13,17,19-tricarboxylic acid]",–,–,–,0.08 to 0.16,–,20.06
"O=C(O)CC[C@H](NC(=O)N[C@@H](CCCCN(Cc1ccc(Br)cc1)C(=O)CCCCNC(=O)CCC(C(=O)O)N1CCN(CC(=O)O)CCN(CC(=O)O)CCN(CC(=O)O)CC1)C(=O)O)C(=O)O (stereo partly drawn) [Ligand L9, (3S,7S)-12-(4-Bromobenzyl)-5,13,19-trioxo-22-(4,7,10-tris(carboxymethyl)-1,4,7,10-tetraazacyclododecan-1-yl)-4,6,12,18-tetraazadocosane-1,3,7,22-tetracarboxylic acid]",–,–,–,0.02 to 0.05,–,7.80
